Consider 12 compounds from ChEMBL document CHEMBL1201862, “PubChem BioAssay data set” (2004).

Some test systems named below: SK-MEL-2; UO-31; HCC 2998; NCI-H522; K562; UACC-257; CAKI-1; RPMI-8226; HL-60; NCI-H226; SF-295; OVCAR-3; SNB-19; OVCAR-8; COLO 205; HT-29; A498; PC-3; BT-549.
Holding throughout (experiment): DTP human tumour cell line panel, 48 h

Each structure is given as a SMILES string. Several values for one entry are separate records, joined by “and”; a condition that tells them apart may be missing. Equal values may be shown once.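 How tested: cells in 96-well plates exposed to compound for 48 hours at five concentrations. Abbreviation: GI50, concentration required for 50% inhibition of growth.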 Activity calls are given as the source filed them. No stated cut-off is given here; in the data, active = GI50 up to about 1.1 µM and inactive = higher.

Turning to `CCOC(=O)/C(=C/c1ccc(C(=O)OC)cc1)N(CC)CC`, the GI50 (as a rule, the concentration giving 50% growth inhibition) in the assay with SK-MEL-2 is 44.9 µM (inactive); with UO-31, 37.2 µM (inactive); in the assay on HCC 2998 it was 99.5 µM (inactive); in the assay on NCI-H522, 37.8 µM (inactive); in the assay on K562, 26.2 µM (inactive); in the assay on UACC-257, 57.3 µM (inactive). For the same compound, the GI50 in the assay on CAKI-1 is 41.6 µM (inactive); with RPMI-8226, 42.5 µM (inactive); in the assay with HL-60, 27.4 µM (inactive); in the assay with NCI-H226, 35.1 µM (inactive); with SF-295 it was > 10 µM (inactive); in the assay with OVCAR-3 it was 22.4 µM (inactive). In addition, the results for the GI50 in the assay on SNB-19, in the assay with OVCAR-8 and in the assay with COLO 205 were 54.5 µM (inactive), 63 µM (inactive) and 70.1 µM (inactive), respectively.

Regarding `O=C(CCc1cc(-c2ccccc2)[nH]c(=S)n1)Nc1ccccc1[N+](=O)[O-]`, the GI50 in the assay with HT-29, in the assay on A498, in the assay with SK-MEL-2, with UO-31, in the assay on HCC 2998 and with NCI-H522 was > 100 µM (inactive) in each case. Further, the GI50 in the assay on K562, with UACC-257, in the assay on CAKI-1, with RPMI-8226, in the assay with HL-60 and with NCI-H226 was > 100 µM (inactive) in each case. In addition, the GI50 with SF-295, in the assay with OVCAR-3, in the assay with SNB-19, with OVCAR-8 and in the assay with COLO 205 was > 100 µM (inactive) in each case.

For the compound `O=C(CC(C(=O)c1ccoc1)c1ccco1)c1ccco1` (stereo unspecified), the GI50 is > 100 µM (inactive) in the assay with HT-29; > 100 µM (inactive) in the assay on A498; 65.9 µM (inactive) in the assay on UO-31; > 100 µM (inactive) with HCC 2998; > 100 µM (inactive) in the assay with NCI-H522; > 100 µM (inactive) in the assay on K562. In addition, the GI50 in the assay with UACC-257, in the assay on CAKI-1, in the assay with RPMI-8226, with HL-60, in the assay with NCI-H226 and in the assay with SF-295 was > 100 µM (inactive) throughout. Also, the GI50 in the assay on OVCAR-3, in the assay with OVCAR-8 and with COLO 205 was > 100 µM (inactive) in each case.

Consider `CC[C@H](C)[C@H]1NC(=O)[C@@H](NC(=O)[C@@H](CC(C)C)N(C)C(=O)C2CCCN2C(=O)[C@H](C)O)[C@@H](C)OC(=O)[C@@H]2Cc3ccccc3CN2C(=O)[C@@H]2CCCN2C(=O)[C@H](CC(C)C)NC(=O)[C@@H](C)C(=O)[C@H](C(C)C)OC(=O)C[C@@H]1O` (stereo partly specified), for which the GI50 is 0.258 µM (active) in the assay with HT-29; 0.871 µM (active) in the assay on A498; 0.205 µM (active) with SK-MEL-2; 0.154 µM (active) in the assay with HCC 2998; 0.443 µM (active) with NCI-H522; 0.175 µM (active) in the assay with K562. Moreover, the GI50 was 0.351 µM (active) in the assay on UACC-257; 4.92 µM (inactive) with CAKI-1; 0.399 µM (active) in the assay on RPMI-8226; 1.6 µM (inactive) in the assay on NCI-H226; 1.06 µM (active) in the assay with SF-295; 0.286 µM (active) in the assay with OVCAR-3. The GI50 in the assay on SNB-19 was 0.207 µM (active); with PC-3 it was 0.317 µM (active); in the assay with OVCAR-8, 1.1 µM (active); with COLO 205, 0.269 µM (active).

As for `CCc1n[nH]c(=O)n1/N=C/c1ccccc1Cl`, the GI50 with HT-29, with BT-549, with A498, in the assay on SK-MEL-2, in the assay on UO-31 and in the assay on HCC 2998 was > 100 µM (inactive) each time. Besides, the GI50 in the assay with NCI-H522, with K562, in the assay with UACC-257, in the assay on CAKI-1, in the assay with RPMI-8226 and in the assay on HL-60 was > 100 µM (inactive) throughout. The GI50 in the assay on NCI-H226 is 88.5 µM (inactive); in the assay on SF-295, > 100 µM (inactive); in the assay on OVCAR-3, > 100 µM (inactive); with SNB-19, > 100 µM (inactive); in the assay on OVCAR-8, > 100 µM (inactive); in the assay with COLO 205, > 100 µM (inactive).

With `O=C(Sc1n[nH]c(=O)[nH]c1=O)c1cccc2nc3ccccc3nc12`, the GI50 was 13.5 µM (inactive) in the assay on HT-29; 8.36 µM (inactive) in the assay on BT-549; > 100 µM (inactive) in the assay with A498; 68.2 µM (inactive) with SK-MEL-2; 27.9 µM (inactive) in the assay with HCC 2998; 47.9 µM (inactive) with K562. Also, the GI50 in the assay with UACC-257 is 13.2 µM (inactive); in the assay with CAKI-1, 78.3 µM (inactive); with RPMI-8226, 78.5 µM (inactive); with HL-60 it was > 100 µM (inactive); in the assay on NCI-H226 it was 34.4 µM (inactive); in the assay with SF-295, 57 µM (inactive). Further, the GI50 was 50 µM (inactive) with OVCAR-3, > 100 µM (inactive) in the assay on SNB-19, > 100 µM (inactive) in the assay with OVCAR-8 and 2.44 µM (inactive) in the assay on COLO 205.

For the compound `COc1ccccc1NC(=S)NNC(=O)c1cc(-c2ccccc2)nc2ccccc12`, the GI50 in the assay with HT-29 is 21.9 µM (inactive); in the assay on BT-549 it was 8.26 µM (inactive); with SK-MEL-2, 10.4 µM (inactive); in the assay with UO-31 it was 11 µM (inactive); in the assay on HCC 2998 it was 13.6 µM (inactive); with NCI-H522, 12.9 µM (inactive). The GI50 with K562 is 6.97 µM (inactive); in the assay on UACC-257, 18.2 µM (inactive); in the assay on CAKI-1, 10.7 µM (inactive); in the assay on RPMI-8226, 6.97 µM (inactive); in the assay with NCI-H226, 17.3 µM (inactive); with SF-295, 4.38 µM (inactive). Further, the GI50 in the assay with OVCAR-3 was 4.45 µM (inactive); in the assay with SNB-19 it was 24.5 µM (inactive); in the assay with PC-3, 10.3 µM (inactive); in the assay with OVCAR-8 it was 18 µM (inactive); with COLO 205, 11.8 µM (inactive).

For `Cc1ccc(-c2cnc(NC3OC(COC(=O)c4ccccc4)C(OC(=O)c4ccccc4)C(OC(=O)c4ccccc4)C3OC(=O)c3ccccc3)s2)cc1` (stereo unspecified), the GI50 in the assay with HT-29 was > 100 µM (inactive); in the assay on BT-549 it was > 100 µM (inactive); with SK-MEL-2 it was > 100 µM (inactive); in the assay with UO-31, > 100 µM (inactive); with NCI-H522, > 100 µM (inactive); with UACC-257 it was 67.9 µM (inactive). The GI50 in the assay on RPMI-8226, in the assay with NCI-H226, with SF-295, in the assay on OVCAR-3, with SNB-19 and in the assay with PC-3 was > 100 µM (inactive) in each case. Further, the GI50 in the assay on OVCAR-8 and in the assay with COLO 205 was > 100 µM (inactive) in each case.

Consider `CC(=O)O[C@H]1C(=O)N(c2cc3c4ccccc4ccc3c3ccccc23)[C@@H]1c1ccccc1`, for which the GI50 was 2.64 µM (inactive) in the assay on HT-29; 21.8 µM (inactive) with A498; 2.65 µM (inactive) with SK-MEL-2; 11.2 µM (inactive) in the assay on UO-31; 5.04 µM (inactive) in the assay on HCC 2998; 4.8 µM (inactive) in the assay on K562. For the same compound, the GI50 in the assay with UACC-257 is 4.09 µM (inactive); in the assay on CAKI-1 it was 4.62 µM (inactive); in the assay with RPMI-8226, 2.23 µM (inactive); in the assay on NCI-H226 it was 3.33 µM (inactive); with SF-295, 3.64 µM (inactive); with OVCAR-3, 1.71 µM (inactive). Also, the GI50 in the assay on SNB-19 is 6.79 µM (inactive); with PC-3, 7.82 µM (inactive); with OVCAR-8 it was 3.97 µM (inactive); in the assay on COLO 205, 4.24 µM (inactive).

With `Cc1cccc(Nc2cnc(N)nc2N)c1`, the GI50 was > 100 µM (inactive) with HT-29; > 100 µM (inactive) in the assay on A498; > 100 µM (inactive) in the assay on SK-MEL-2; 90.2 µM (inactive) in the assay with UO-31; > 100 µM (inactive) in the assay with HCC 2998; > 100 µM (inactive) in the assay with NCI-H522. Also, the GI50 in the assay on K562, in the assay with UACC-257, in the assay with CAKI-1, in the assay with RPMI-8226, with HL-60 and in the assay with NCI-H226 was > 100 µM (inactive) throughout. The GI50 with SF-295, with OVCAR-3, with SNB-19, in the assay with PC-3, in the assay with OVCAR-8 and in the assay with COLO 205 was > 100 µM (inactive) each time.

Consider `CC1=CC(=O)CC2(C)CCC(C(C)CC(=O)CC(C)C)CC12OO` (stereo unspecified), for which the GI50 in the assay on HT-29 is 17 µM (inactive) and 20.7 µM (inactive); in the assay on A498, 22.4 µM (inactive) and 16.9 µM (inactive); in the assay with SK-MEL-2, 16.9 µM (inactive) and 20.2 µM (inactive); in the assay on UO-31, 19.9 µM (inactive) and 16.2 µM (inactive); in the assay on K562, 10.9 µM (inactive) and 5.53 µM (inactive); in the assay with UACC-257, 17.7 µM (inactive) and 17.3 µM (inactive). For the same compound, the GI50 in the assay on CAKI-1 is 19.3 µM (inactive); in the assay on RPMI-8226, 16.6 µM (inactive) and 12.5 µM (inactive); in the assay with HL-60, 1.83 µM (inactive) and 1.87 µM (inactive); in the assay with NCI-H226, 18.3 µM (inactive) and 18.7 µM (inactive); in the assay on SF-295 it was 16.4 µM (inactive) and 17 µM (inactive); in the assay on SNB-19 it was > 100 µM (inactive) and 95.5 µM (inactive). In addition, the GI50 with PC-3 was 14.3 µM (inactive) and 15.7 µM (inactive); in the assay with OVCAR-8, 19.2 µM (inactive) and 27.7 µM (inactive); in the assay with COLO 205, 18.8 µM (inactive) and 14.3 µM (inactive).

`Nc1ccc2nc(NCc3ccc(F)cc3)cnc2c1`: the GI50 in the assay with HT-29 is > 100 µM (inactive); with SK-MEL-2 it was > 100 µM (inactive); with UO-31, 21.3 µM (inactive); in the assay with HCC 2998, > 100 µM (inactive); in the assay on NCI-H522, > 100 µM (inactive); in the assay with K562, > 100 µM (inactive). Also, the GI50 in the assay with RPMI-8226 was > 100 µM (inactive); with HL-60, 54.1 µM (inactive); with NCI-H226 it was > 100 µM (inactive); with SF-295, > 100 µM (inactive); in the assay with OVCAR-3, > 100 µM (inactive); in the assay with SNB-19, 44.5 µM (inactive). Moreover, the GI50 in the assay on OVCAR-8 and in the assay with COLO 205 was > 100 µM (inactive) each time.
